These are literature values, as cited in patent US20120035270A1, “PAEDIATRIC SOLUTIONS COMPRISING A BETA-BLOCKER” (priority 2009, published 2012).

Data set [1] relates to B. Subtilis, S. Aureus and E. Coli. The settings on record: Takahashi et al. 1983.
For the next data set, the system named is B. Subtilis. The following applies: growth of B. Subtilis.
The test system of the next data set is S. Aureus. The settings on record: growth of S. Aureus.
The subject of the next data set is E. Coli. The following applies: growth of E. Coli.
The subject of data set [2] is Infantile capillary hemangiomas (IH). The settings on record: severe hemangiomas of infancy, Léauté-Labrèze et al. 2008.

For `CC(C)(C)NC[C@H](O)COc1nsnc1N1CCOCC1` [Timolol], the antimicrobial effects result in data set [1] is reported as “do not have these antimicrobial effects”. With `Cc1ccc(Cl)c(OCC(O)CNC(C)(C)C)c1` (stereo not drawn) [bupranolol], the minimum inhibitory concentration is 0.1% with B. Subtilis, 0.05% in the data set on S. Aureus and 0.05% in the data set on E. Coli. For `CC(=O)c1cc2cccc(OCC(O)CNC(C)C)c2o1` (stereo not drawn) [befunolol], the antimicrobial effects entry in data set [1] is “do not have these antimicrobial effects”. `CC(C)NCC(O)COc1cccc2ccccc12` (stereo not drawn) [propranolol, 1-(isopropylamino)-3-(naphthalen-1-yloxy)propan-2-ol]: in data set [2], the “control and treatment of the growth of IH” value is “could efficiently be used to control and even to treat the growth of IH”.
